Source: PMC2792043 (PLoS ONE, 2009)
Converted amounts (≈) assume the structure as drawn. “And” between values parts separate entries of the source, which are not always exact repeats. Equal entries are not always repeated. Structures can show the parent of a compound that is named as a salt.

Tests used:
NA activity = assay type: biochemical
influenza A PR8 virus [1] = assay type: cell-based, Influenza A/Puerto Rico/8/34 (H1N1)
influenza A PR8 virus [2] = assay type: cell-based, Influenza A/Puerto Rico/8/34 (H1N1); remark: listed apart in the source
influenza A or B viruses = assay type: cell-based
[3] = target: NA from influenza NC virus (Influenza A virus, UniProt Q7TG96); assay type: biochemical; conditions: read-out: IC50 NA activity
influenza A PR8 virus [4] = assay type: cell-based, Influenza A/Puerto Rico/8/34 (H1N1); remark: listed apart in the source
influenza A PR8 virus [5] = test: microbe, parasite or virus in culture; assay type: cell-based; conditions: PR8, MDCK, 48 h, read-out: minimum effective dose required to protect 50% of cells (EC50)
influenza A PR8 virus [6] = assay type: cell-based
[7] = tested on: influenza A and B viruses; assay type: cell-based
in vitro = conditions: pH 7.2
influenza A NY virus = assay type: cell-based
NMRI mice = conditions: mouse, in vivo; cited from earlier work
hamsters = conditions: hamster, in vivo; cited from earlier work
[8] = tested on: influenza A strains PR8, NY or NC; assay type: cell-based
recombinant N4 protein = recombinant N4 protein (Influenza A virus, UniProt Q6XV43); test: biochemical
influenza A NC virus = assay type: cell-based
mice = conditions: mouse, in vivo; cited from earlier work

NC12CC3CC(CC(C3)C1)C2 [AH, amantadine hydrochloride]
inhibition of NA activity (NA activity): no inhibition | Virus yield, Cells (influenza A PR8 virus [1]): 4.7×10^5 PFU/ml | Virus yield, Medium (influenza A PR8 virus [1]): 3×10^5 PFU/ml

O=C(O)C1=CC(=C(c2ccc(O)c(C(=O)O)c2)c2ccc(O)c(C(=O)O)c2)C=CC1=O [ATA, Aurintricarboxylic acid]
viral aggregation by electron microscopy (influenza A PR8 virus [2]): induce viral aggregation on the cell surface | number and size of plaques (influenza A or B viruses): reduced both the number and size of plaques | IC50 [3]: 39.3 µM | viral NP RNA level (influenza A PR8 virus [4]): substantial reduction in viral NP RNA | EC50 (influenza A PR8 virus [5]): 6.5 µg/mL (≈ 15.4 µM) | reduction of virus abundance in medium (influenza A PR8 virus [6]): 93% and 95% | plaques after pre-incubation of virus with ATA [7]: reduced the number of plaques | CC50 at 48 h (in vitro): 577 µg/mL (≈ 1370 µM) | reduction of virus abundance in medium (influenza A NY virus): 72% and 81% | LD50 (NMRI mice): 340 mg/kg | median life span (NMRI mice): 18 days | well tolerated infusion dose (hamsters): up to 1 mg/kg/hour | Virus yield, Cells (influenza A PR8 virus [1]): 5×10^4 PFU/ml | Virus yield, Medium (influenza A PR8 virus [1]): 1.3×10^4 PFU/ml | magnitude of inhibition, production of infectious viral particles (influenza A PR8 virus [1]): at least 3 logs | protection from virus-induced CPE, prophylactic exposure [8]: did not protect cells from virus-induced CPE | protection of infected MDCK cells (neutral red uptake) [8]: significantly protected MDCK cells from influenza infection | IC50 (recombinant N4 protein): 2.37 µM | reduction of virus abundance in medium (influenza A NC virus): 86% and 94% | single dose tolerated well (mice): ≤ 4 mg/kg

N-acetyl-2,3-dehydro-2-deoxyneuraminic acid [NAA]
inhibition of NA activity (NA activity): inhibited NA activity with very low IC50 values | Virus yield, Cells (influenza A PR8 virus [1]): 6.2×10^6 PFU/ml | Virus yield, Medium (influenza A PR8 virus [1]): 4.7×10^6 PFU/ml
